“Also recorded” adds a separate entry of the source. *: point of attachment. Myristoyl = CCCCCCCCCCCCCC(=O)*
Assays:
mouse DLEP α6β4^+ cells = assay: Isolated DLEP α6β4+ cell colony assay (Example 3); assay type: cell-based; conditions: PKCζi 10 μM, 2 weeks, 20% BALF from week 1 bleomycin injured mice
Experimental: Isolated mouse DLEP α6β4^+ cells in the presence of 20% of BALF from week 1 mice injured with bleomycin were treated with PKCζi (10 μM) for 2 weeks. At week 3 the colonies derived from cre-GFP (lox-tm-TR/GFP) for surfactant protein C (SPC)/Tomato red with hydroxy-tamoxifen were exposed in order to trace the differentiation of β4^+ colonies into SPC^+ cells.

[1] = test system: bleomycin induced ALI mouse model; assay: In vivo lung μCT scan in bleomycin ALI model; conditions: week 6
Experimental: (§1) Animal protocols were approved by the Institutional Animal Care and Use Committee at the University of Iowa. C57BL/6 mice (Jackson Laboratories, Bar Harbor, Me.) were anesthetized followed by intratracheal instillation of: (A) Control (Ctrl): 1 μl of DMSO (Sigma, St. Louis, Mo.) plus 49 μl of PBS; (B) Bleomycin (Bleo): 1 μl of DMSO plus 49 μl of bleomycin (APP pharmaceuticals, LLC Schaumburg, Ill.) dissolved in PBS (4 U/kg); (C) Bleomycin/PKCζi (Bleo/PKCζi): 1 μg of PKCζi (Calbiochem EMD Biosciences, San Diego, Calif.) solubilized in 1 μl of DMSO plus 49 μl of bleomycin (4 U/Kg) dissolved in PBS (Calbiochem EMD Biosciences, San Diego, Calif.). After this treatment, all mice were instilled (50 μl) every 72 hours with 1 μl of DMSO plus 49 μl of PBS in the Ctrl and Bleo group or with 1 μg of PKCζi dissolved in 1 μl of DMSO plus 49 μl of PBS in the Bleo/PKCζi group for the duration of the experiment. Mice were treated for up to 6 weeks (FIG. 1A). All conditions had between 4 to 6 animals.
High resolution scanning coupled to a computer controlled respirator to reduce ventilation motion artifacts was performed as described previously (27).

[2] = test system: active transforming growth factor beta (TGFβ); assay: Active TGFβ ELISA in bleomycin ALI model; assay type: in vivo, mouse
Experimental: as §1
(§2) Mouse IL-1β and active transforming growth factor beta (TGFβ) were measured using an ELISA from R&D Biosystems (Minneapolis, Minn.).

[3] = test system: BALF isolated cells from bleomycin treated mice; assay: ROS production (extracellular H2O2) of BALF cells, p-hydroxyphenylacetate method; assay type: in vivo, mouse; conditions: week 1 post initial instillation
Experimental: as §1
BALF cells from week 1 post initial instillation were determined by the p-hydroxyphenylacetate method as reported previously (25).

integrin β4^+ DLEP cells = assay: Isolated integrin β4+ DLEP cell colony proliferation in matrigel; assay type: cell-based, mouse; conditions: for number of β4+ colonies: PKCζi 520 nM, two weeks, media with 20% BALF from bleomycin injured mice, vs PBS and DMSO
Source text: (§3) (8) PKC-ζi promotes proliferation of distal lung epithelial progenitor cells. Recently Chapman et al reported that integrin α6β4 identifies a population of lung cells with regenerative potential in mice (Chapman et al. (2011). “Integrin alpha6beta4 identifies an adult distal lung epithelial population with regenerative potential in mice.” J Clin Invest 121(7): 2855-2862). Furthermore, Li et al, reported same population in human lungs (Li et al. (2013). “Integrin alpha6beta4 identifies human distal lung epithelial progenitor cells with potential as a cell-based therapy for cystic fibrosis lung disease.” PLoS One 8(12): e83624). Therefore, the inventors set out to examine by immunofluorescence the presence of these cells in mouse lungs at 3 and 6 weeks after bleomycin treatment. […] In addition, the inventors isolated mouse α6β4 cells and treated them for 2 weeks with PKC-ζi ([…]).
Integrin β4^+ cells were isolated using flow cytometry and were seeded in matrigel as previously described with modifications (23). Cells were grown for two weeks in the presence of PBS, DMSO (1:1000) or PKCζi (1:1000, 520 nM final concentration PKC). In order to recreate the microenvironment, the media was supplemented with 20% BALF from bleomycin treated mice from week 1 similar to previously described (4).
To test the hypothesis that PKCζ can promote proliferation of β4^+ DLEP cells, integrin β4^+ cells were isolated and the media was supplemented with BALF from bleomycin treated mice from week 1 in the presence of PBS, DMSO or […], in order to recreate the microenvironment in a similar approach as Vaughan and colleagues (4). […] As shown in FIGS. 5 C & D, PKCζi increased proliferation of DLEP integrin β4^+ cells in vitro compared to control.

DLEP integrin β4^+ cells = assay: DLEP integrin β4+ cells in mouse lungs by immunofluorescence after bleomycin injury; assay type: in vivo
Source text: as §3, §1
(§4) After dissection, immunofluorescence labeling was performed on frozen mouse lung tissue sections with polyclonal anti p-PKCζ (Santa Cruz Biotechnology, Dallas, Tex.) or monoclonal β4 antibody (Clone 346-11a, BD Biosciences, San Jose, Calif.) (23). In addition, Terminal deoxynucleotidyltransferase dUTP nick end labeling (TUNEL) staining was performed on week 1 mouse lung tissue sections (24).

[4] = test system: bleomycin induced lung inflammation; assay: Lung inflammation and cell death in bleomycin ALI model (BALF cell and neutrophil count, IL-1β, TUNEL); assay type: in vivo, mouse
Experimental: as §1, §4
Bronchoalveolar lavage was performed as previously described (18). Total cell count was examined by hemocytometer and the percent of neutrophils cells in the bronchoalveolar lavage fluid (BALF) by cytospin slides stained with Wright's-Giemsa. Total protein concentration was measured by Bradford assay (Bio-Rad, Hercules, Calif.).
as §2

Substance: N-Myristoyl-Ser-Ile-Tyr-Arg-Arg-Gly-Ala-Arg-Arg-Trp-Arg-Lys-Leu-OH (Myristoyl-SIYRRGARRWRKL-OH; SMILES CCCCCCCCCCCCCC(=O)N[C@@H](CO)C(=O)N[C@H](C(=O)N[C@@H](Cc1ccc(O)cc1)C(=O)N[C@@H](CCCNC(=N)N)C(=O)N[C@@H](CCCNC(=N)N)C(=O)NCC(=O)N[C@@H](C)C(=O)N[C@@H](CCCNC(=N)N)C(=O)N[C@@H](CCCNC(=N)N)C(=O)N[C@@H](Cc1c[nH]c2ccccc12)C(=O)N[C@@H](CCCNC(=N)N)C(=O)N[C@@H](CCCCN)C(=O)N[C@@H](CC(C)C)C(=O)O)[C@@H](C)CC) [PKCζi]
- number of α6β4+ colonies (mouse DLEP α6β4^+ cells): increased the number of α6β4^+ colonies compared to control; also recorded: promotes proliferation DLEP α6β4^+ cells in vitro
- lung injury on μCT [1]: confirmed lung injury resolution; also recorded: complete resolution in the PKCζi group at week 6
- lung injury on μCT ([1]; listed as PKC-ζi): confirmed lung injury resolution
- active TGF β ([2]; week 3 post injury): no difference in active TGF β and hydroxyproline concentrations compared to bleomycin group; also recorded: does not prevent bleomycin induced TGF β activation
- active TGF β ([2]; week 3 post injury, listed as PKC-ζi): significantly elevated in both groups
- active TGF β ([2]; week 6): prevents bleomycin induced active TGF β at week 6
- ROS production / extracellular hydrogen peroxide (H2O2) of BALF cells [3]: does not reduce extracellular hydrogen peroxide (H2O2) in BALF isolated cells from bleomycin treated mice lung
- ROS production / extracellular hydrogen peroxide (H2O2) of BALF cells ([3]; listed as PKC-ζi): did not prevent ROS production in bleomycin treated mice
- number of isolated mouse α6β4 cells (integrin β4^+ DLEP cells; Example 1, treated for 2 weeks, concentration not given, vs DMSO): increased the number of α6β4 cells compared to DMSO treated cells
- number of β4+ colonies (integrin β4^+ DLEP cells): increased number of large colonies compared to either DMSO or the PBS group
- number of β4+ colonies (integrin β4^+ DLEP cells; listed as PKC-ζi): increased the number of β4^+ colonies compared to PBS and DMSO at week 2
- number of lung DLEP integrin β4+ (α6β4) cells (DLEP integrin β4^+ cells; week 3 after bleomycin): an increase in DLEP integrin β4^+ cells in the PKCζi treated mice at week 3
- number of lung DLEP integrin β4+ (α6β4) cells (DLEP integrin β4^+ cells; week 3 after bleomycin, listed as PKC-ζi): an increase trend in α6β44 in the PKC-ζi treated mice
- number of lung DLEP integrin β4+ (α6β4) cells (DLEP integrin β4^+ cells; week 6 after bleomycin): became statistically significant at week 6; also recorded: increased number of lung DLEP integrin β4^+ cells compared to bleomycin group at week 6
- number of lung DLEP integrin β4+ (α6β4) cells (DLEP integrin β4^+ cells; week 6 after bleomycin, listed as PKC-ζi): became significant at 6 weeks
- bleomycin induced inflammatory response ([4]; Example 1): did not prevent increase in inflammatory response
- apoptotic cells by TUNEL+ staining ([4]; week 1 lung sections): did not prevent the increase in apoptotic cells by TUNEL^+ staining
- BALF cell count ([4]; week 1 post injury): neither prevented the increase in BALF cell and neutrophil count
- BALF neutrophil concentration / count ([4]; week 1 post injury): neither prevented the increase in BALF cell and neutrophil count; also recorded: does not decrease bleomycin induced increase in the BALF neutrophil concentration
- IL-1β in BALF ([4]; week 1 post injury): nor prevented the increase in IL-1β concentration; also recorded: does not decrease IL-1β release into BALF

From patent US10328114B2, “Lung injury repair compositions and methods” (University of Iowa Research Foundation, priority 2015, dated 2019)
